In US12479820B2, “Pyridin-3-yl derivatives” (Idorsia Pharmaceuticals Ltd, priority 2019, dated 2025):

Each compound was assayed against T1, human LPA1 receptor (Homo sapiens, UniProt Q92633) (assay: Beta-arrestin recruitment assay to determine IC50 values for human LPAR1). Settings: Tango EDG2-bla U2OS cells, antagonist assay, LPA 18:1 500 nM final.
T1 construct: TEV protease site; Gal4-VP16 transcription factor; host or cells: Tango EDG2-bla U2OS cells
Assay type: cell-based
From the text: Beta-Arrestin Recruitment Assay to Determine IC50 Values for Human LPAR1
The Tango™ EDG2-bla U2OS cells are obtained from Invitrogen. These cells contain the human LPA1 receptor cDNA linked to a TEV protease site and a Gal4-VP16 transcription factor integrated into the Tango™ GPCR-bla U2OS parental cell line. This parental cell line stably expresses a beta-arrestin/TEV protease fusion protein and the beta-lactamase (bla) reporter gene under the control of a UAS response element. Upon LPA (agonist) binding, LPA1 receptor gets activated, leading to arrestin-protease recruitment and proteolytic release of the transcription factor: The transcription factor then regulates transcription of a beta-lactamase reporter construct, which is measured upon addition of the live-cell substrate.
10′000 Tango™ EDG2-bla U2OS cells are seeded in a 384-well black with clear bottom plate in 30 μl Freestyle 293 Expression Medium (Invitrogen) and incubated for 20 h at 37° C., 5% CO2. For antagonist assays, 5 μl of test compound (dilution series in DMSO/Freestyle 293 Expression medium/0.1% fatty acid free BSA (Sigma)) or buffer control are added per well and incubated for 30 min at 37° C., 5% CO2. 5 μl of LPA 18:1 (500 nM final) (solution in Freestyle 293 Expression medium/0.1% fatty acid free BSA (Sigma)) are added per well and the plate incubated for 16 h at 37° C., 5% CO2. Cells are then loaded with LiveBLAzer-FRET™ B/G Substrate (Invitrogen) for 2 h in the dark and the fluorescence emission at 460 nm and 530 nm is measured using the SynergyMx reader (BioTek). Following the background subtraction from both channels, the 460/530 nm emission ratio for each well is calculated, then plotted and fitted to a 4-parameter logistic function to obtain IC50 values. IC50 is the concentration of antagonist inhibiting 50% of the maximal response.

T1 sequence (Q92633 whole entry, the tested form may be a part): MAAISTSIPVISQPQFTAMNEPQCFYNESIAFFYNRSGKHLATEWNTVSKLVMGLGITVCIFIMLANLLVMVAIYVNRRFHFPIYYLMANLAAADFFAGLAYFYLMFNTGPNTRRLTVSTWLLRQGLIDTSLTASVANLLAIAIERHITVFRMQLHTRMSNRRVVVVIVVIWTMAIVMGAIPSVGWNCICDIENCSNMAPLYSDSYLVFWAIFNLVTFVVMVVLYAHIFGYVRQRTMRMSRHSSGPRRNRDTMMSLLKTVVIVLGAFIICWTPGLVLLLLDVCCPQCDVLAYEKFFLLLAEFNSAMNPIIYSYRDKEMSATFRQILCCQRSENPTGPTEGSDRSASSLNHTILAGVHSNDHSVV

**Q.** Which IC50 does the source give for `COc1cc(Cl)ncc1NC(=O)C1(c2ccccc2C(C)C)CN(c2cc(Cl)nc(C)n2)C1` [Example 24-15, 1-(6-chloro-2-methylpyrimidin-4-yl)-N-(6-chloro-4-methoxypyridin-3-yl)-3-(2-isopropylphenyl)azetidine-3-carboxamide] here?
**A.** 29 nM

**Q.** `CC(C)c1ccccc1C1(C(=O)Nc2cnc(Cl)cc2OC2CC2)CN(S(N)(=O)=O)C1` [Example 21-5, N-(6-chloro-4-cyclopropoxypyridin-3-yl)-3-(2-isopropylphenyl)-1-sulfamoylazetidine-3-carboxamide] was tested. Which IC50 did it give?
**A.** 6 nM

**Q.** `COc1cc(Cl)ncc1NC(=O)C1(c2ncccc2C(C)C)CN(C(=O)NC2CC2)C1` [Example 22-7, N3-(6-chloro-4-methoxypyridin-3-yl)-N1-cyclopropyl-3-(3-isopropylpyridin-2-yl)azetidine-1,3-dicarboxamide] was tested. Which IC50 did it give?
**A.** 18 nM

**Q.** For `CCOc1cc(Cl)ncc1NC(=O)C1(c2ccccc2C(C)C)CN(C(=O)CC(C)(C)C(=O)O)C1` [Example 19-22, 4-(3-((6-chloro-4-ethoxypyridin-3-yl)carbamoyl)-3-(2-isopropylphenyl)azetidin-1-yl)-2,2-dimethyl-4-oxobutanoic acid], which IC50 is on record?
**A.** 12 nM

**Q.** Which IC50 does the source give for `COc1cc(Br)ncc1NC(=O)C1(c2ccccc2C(C)C)CN(CCC(C)(C)C(=O)O)C1` [Example 18-23, 4-(3-((6-bromo-4-methoxypyridin-3-yl)carbamoyl)-3-(2-isopropylphenyl)azetidin-1-yl)-2,2-dimethylbutanoic acid] here?
**A.** 56 nM

**Q.** How did the IC50 turn out when `COc1cc(Cl)ncc1NC(=O)C1(c2ccccc2C(C)C)CN(c2ncc(F)cn2)C1` [Example 24-9, N-(6-chloro-4-methoxypyridin-3-yl)-1-(5-fluoropyrimidin-2-yl)-3-(2-isopropylphenyl)azetidine-3-carboxamide] was run?
**A.** 8 nM

**Q.** How did the IC50 turn out when `COc1cc(Cl)ncc1NC(=O)C1(c2ccccc2C(C)C)CN(c2ccnc(C)c2)C1` [Example 24-5, N-(6-chloro-4-methoxypyridin-3-yl)-3-(2-isopropylphenyl)-1-(2-methylpyridin-4-yl)azetidine-3-carboxamide] was run?
**A.** 3 nM

**Q.** Which IC50 does the source give for `COc1cc(Cl)ncc1NC(=O)C1(c2ccccc2C(C)C)CN(CCc2nnn[nH]2)C1` [Example 18-4, 1-(2-(1H-tetrazol-5-yl)ethyl)-N-(6-chloro-4-methoxypyridin-3-yl)-3-(2-isopropylphenyl)azetidine-3-carboxamide] here?
**A.** 143 nM

**Q.** For `COc1cc(Cl)ncc1NC(=O)C1(c2ccccc2C(C)C)CN(C(N)=O)C1` [Example 22-1, N3-(6-chloro-4-methoxypyridin-3-yl)-3-(2-isopropylphenyl)azetidine-1,3-dicarboxamide], which IC50 is on record?
**A.** 22 nM

**Q.** For `COc1cc(Cl)ncc1NC(=O)C1(c2ccccc2C(C)C)CN(C(C)C)C1` [Example 18-1, N-(6-chloro-4-methoxypyridin-3-yl)-1-isopropyl-3-(2-isopropylphenyl)azetidine-3-carboxamide], which IC50 is on record?
**A.** 9 nM

**Q.** For `CC(C)Oc1cc(Cl)ncc1NC(=O)C1(c2ccccc2C(C)C)CN(CCC(C)(C)C(=O)O)C1` [Example 18-20, 4-(3-((6-chloro-4-isopropoxypyridin-3-yl)carbamoyl)-3-(2-isopropylphenyl)azetidin-1-yl)-2,2-dimethylbutanoic acid], which IC50 is on record?
**A.** 16 nM

**Q.** Which IC50 does the source give for `COC[C@H](C)Oc1cc(Cl)ncc1NC(=O)C1(c2ccccc2C(C)C)CN(S(N)(=O)=O)C1` [Example 21-7, (S)-N-(6-chloro-4-((1-methoxypropan-2-yl)oxy)pyridin-3-yl)-3-(2-isopropylphenyl)-1-sulfamoylazetidine-3-carboxamide] here?
**A.** 3 nM

**Q.** How did the IC50 turn out when `COc1cc(Cl)ncc1NC(=O)C1(c2ccccc2C(C)C)CN(C(=O)CNS(C)(=O)=O)C1` [Example 19-15, N-(6-chloro-4-methoxypyridin-3-yl)-3-(2-isopropylphenyl)-1-((methylsulfonyl)glycyl)azetidine-3-carboxamide] was run?
**A.** 37 nM

**Q.** For `COc1cc(C(F)(F)F)ncc1NC(=O)C1(c2ccccc2C(C)C)CN(S(N)(=O)=O)C1` [Example 21-11, 3-(2-isopropylphenyl)-N-(4-methoxy-6-(trifluoromethyl)pyridin-3-yl)-1-sulfamoylazetidine-3-carboxamide], which IC50 is on record?
**A.** 42 nM

**Q.** `COc1cc(Cl)ncc1NC(=O)C1(c2ncccc2C(C)C)CNC1` [Example 15, N-(6-chloro-4-methoxypyridin-3-yl)-3-(3-isopropylpyridin-2-yl)azetidine-3-carboxamide] was tested. Which IC50 did it give?
**A.** 196 nM

**Q.** With `CNS(=O)(=O)N1CC(C(=O)Nc2cnc(Cl)cc2OC)(c2ccccc2C(C)C)C1` [Example 21-12, N-(6-chloro-4-methoxypyridin-3-yl)-3-(2-isopropylphenyl)-1-(N-methylsulfamoyl)azetidine-3-carboxamide] as the compound, how does the IC50 read?
**A.** 19 nM

**Q.** With `COc1cc(Cl)ncc1NC(=O)C1(c2ccccc2C(C)C)CN(c2ncncc2C)C1` [Example 24-13, N-(6-chloro-4-methoxypyridin-3-yl)-3-(2-isopropylphenyl)-1-(5-methylpyrimidin-4-yl)azetidine-3-carboxamide] as the compound, how does the IC50 read?
**A.** 5 nM

**Q.** How did the IC50 turn out when `CC(C)c1ccccc1C1(C(=O)Nc2cnc(Cl)cc2OC2CC2)CNC1` [Example 7, N-(6-chloro-4-cyclopropoxypyridin-3-yl)-3-(2-isopropylphenyl)azetidine-3-carboxamide] was run?
**A.** 41 nM

**Q.** `COc1cc(Cl)ncc1NC(=O)C1(c2ccccc2C(C)C)CN(C(=O)Cn2ccnn2)C1` [Example 19-11, 1-(2-(1H-1,2,3-triazol-1-yl)acetyl)-N-(6-chloro-4-methoxypyridin-3-yl)-3-(2-isopropylphenyl)azetidine-3-carboxamide] was tested. Which IC50 did it give?
**A.** 107 nM

**Q.** For `CCOc1cc(Cl)ncc1NC(=O)C1(c2ccccc2C(C)C)CN(CCCC(C)(C)C(=O)O)C1` [Example 18-27, 5-(3-((6-chloro-4-ethoxypyridin-3-yl)carbamoyl)-3-(2-isopropylphenyl)azetidin-1-yl)-2,2-dimethylpentanoic acid], which IC50 is on record?
**A.** 21 nM

**Q.** `COc1cc(Cl)ncc1NC(=O)C1(c2c(F)cccc2C(C)C)CNC1` [Example 13, N-(6-chloro-4-methoxypyridin-3-yl)-3-(2-fluoro-6-isopropylphenyl)azetidine-3-carboxamide] was tested. Which IC50 did it give?
**A.** 3 nM

**Q.** For `COc1cc(Cl)ncc1NC(=O)C1(c2ccccc2C(C)C)CN(C(=O)CNS(N)(=O)=O)C1` [Example 19-14, N-(6-chloro-4-methoxypyridin-3-yl)-3-(2-isopropylphenyl)-1-(sulfamoylglycyl)azetidine-3-carboxamide], which IC50 is on record?
**A.** 67 nM

**Q.** Which IC50 does the source give for `COc1cc(F)ncc1NC(=O)C1(c2ccccc2C(C)C)CNC1` [Example 1, N-(6-fluoro-4-methoxypyridin-3-yl)-3-(2-isopropylphenyl)azetidine-3-carboxamide] here?
**A.** 48 nM

**Q.** Which IC50 does the source give for `COc1cc(Cl)ncc1NC(=O)C1(c2ccccc2C(C)C)CN(CCCC(C)(C)C(=O)O)C1` [Example 18-25, 5-(3-((6-chloro-4-methoxypyridin-3-yl)carbamoyl)-3-(2-isopropylphenyl)azetidin-1-yl)-2,2-dimethylpentanoic acid] here?
**A.** 47 nM

**Q.** How did the IC50 turn out when `COC(=O)N1CC(C(=O)Nc2cnc(Cl)cc2OC)(c2ccccc2C(C)C)C1` [Example 23-1, Methyl 3-((6-chloro-4-methoxypyridin-3-yl)carbamoyl)-3-(2-isopropylphenyl)azetidine-1-carboxylate] was run?
**A.** 6 nM

**Q.** With `COc1ccncc1NC(=O)C1(c2ccccc2C(C)C)CN(S(N)(=O)=O)C1` [Example 21-18, 3-(2-isopropylphenyl)-N-(4-methoxypyridin-3-yl)-1-sulfamoylazetidine-3-carboxamide] as the compound, how does the IC50 read?
**A.** 1560 nM
